Test results taken from paper PMC2922422 (Neuropsychopharmacology : official publication of the …, 2010).
Structures can show the parent of a compound that is named as a salt.

Key:
[1] = system: ShA rats; conditions: 3 mg/kg, ref Baptista et al 2004; cited from earlier work
[2] = system: Wistar rats; test: food-maintained responding; conditions: food-restricted rats, 1 h session
[3] = system: Wistar rats; test: intravenous cocaine self-administration, short; conditions: for cocaine self-administration (infusions earned, % of baseline): 30 min pretreatment, vs vehicle; for inactive lever presses: cocaine self-administration
[4] = target: rat mGluR3 (Rattus norvegicus, UniProt P31422); test: thallium flux assay, mGluR3 GIRK HEK-293 cells; format: cell-based; conditions: in presence of EC20 glutamate
rat mGluR3, sequence (P31422 23-879): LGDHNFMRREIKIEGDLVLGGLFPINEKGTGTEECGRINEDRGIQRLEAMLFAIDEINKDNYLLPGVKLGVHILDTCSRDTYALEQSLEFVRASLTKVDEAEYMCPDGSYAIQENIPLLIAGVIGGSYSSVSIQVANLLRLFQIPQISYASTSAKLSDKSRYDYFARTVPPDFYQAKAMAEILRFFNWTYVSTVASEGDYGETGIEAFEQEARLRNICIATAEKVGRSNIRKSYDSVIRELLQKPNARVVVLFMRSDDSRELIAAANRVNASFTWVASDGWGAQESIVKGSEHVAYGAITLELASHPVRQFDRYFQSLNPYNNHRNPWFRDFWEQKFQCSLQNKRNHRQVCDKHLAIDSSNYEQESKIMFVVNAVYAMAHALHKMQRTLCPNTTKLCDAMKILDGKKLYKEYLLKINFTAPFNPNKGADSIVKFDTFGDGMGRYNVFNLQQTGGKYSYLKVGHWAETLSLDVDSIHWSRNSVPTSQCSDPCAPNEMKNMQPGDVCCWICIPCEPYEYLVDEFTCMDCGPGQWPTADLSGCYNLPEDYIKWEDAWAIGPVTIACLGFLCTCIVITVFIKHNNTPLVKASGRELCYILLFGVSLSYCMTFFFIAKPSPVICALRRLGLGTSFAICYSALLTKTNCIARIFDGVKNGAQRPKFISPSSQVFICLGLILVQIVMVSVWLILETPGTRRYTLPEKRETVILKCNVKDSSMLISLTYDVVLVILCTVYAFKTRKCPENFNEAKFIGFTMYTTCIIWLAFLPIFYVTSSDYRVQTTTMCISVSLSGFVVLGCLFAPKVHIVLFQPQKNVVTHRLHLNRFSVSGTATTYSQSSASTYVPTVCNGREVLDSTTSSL

[5] = plasma pharmacokinetics after i.p. administration; format: in vivo; conditions: rat, mean ± SD
[6] = brain and plasma levels 1 h after administration; format: in vivo; conditions: rat, geometric mean (lower – upper limits)
[7] = system: Wistar rats; test: intracranial self-stimulation; format: in vivo, rat
[8] = system: Wistar rats; test: cue-induced reinstatement of food-seeking behavior; conditions: food-responding rats; 10, 20, 40 mg/kg i.p., between-subjects
[9] = system: Wistar rats; test: cue-induced reinstatement of cocaine-seeking behavior

In the case of `N[C@@]1(C(=O)O)CO[C@H]2[C@H](C(=O)O)[C@H]21` [LY379268, [−]-2-oxa-4-aminobicyclo[3.1.0]hexane-4,6-dicarboxylate], the cocaine self-administration [1] is given as “decreased cocaine self-administration”, the food-maintained responding ([2]; 6 mg/kg) is given as “significantly decreased food responding” and the “cocaine self-administration (infusions earned, % of baseline)” value ([3]; LgA rats, 6 h session and first hour, 6 mg/kg) is given as “significant decrease in cocaine intake”. The “cocaine self-administration (infusions earned, % of baseline)” value ([3]; ShA rats, 1 h session, 3 and 6 mg/kg) was “significant decrease in cocaine intake” and the inactive lever presses ([3]; 0.3, 1, 3, 6 mg/kg) was “no effect on inactive lever presses”.

For `Cc1c(OCc2cccc(-c3ccc(C(=O)[O-])cc3)c2)cc2c(c1C)C(=O)C(C1CCCC1)C2.[K+]` (centres unmarked) [BINA, potassium 3′-([2-cyclopentyl-6-7-dimethyl-1-oxo-2,3-dihydro-1H-inden-5yloxy]methyl)biphenyll-4-carboxylate], the “potentiation of the glutamate EC20 response” value [4] was “inactive”, the AUC ([5]; 20 mg/kg i.p.) was 31 ± 5.0 h μM/L and the Cmax ([5]; 20 mg/kg i.p.) was 9.3 ± 2.7 µM. It also gave a Vd ([5]; 20 mg/kg i.p.) of 5.9 ± 2.6 L/kg, an AUC ([5]; 40 mg/kg i.p.) of 114 ± 42 h μM/L and a Cmax ([5]; 40 mg/kg i.p.) of 31 ± 14 µM. For the same compound, the Vd ([5]; 40 mg/kg i.p.) was 1.7 ± 0.68 L/kg, the “Brain level (mean)” value ([6]; 20 mg/kg) was 2.78 (0.65 – 6.39) μM and the “Plasma level (mean)” value ([6]; 20 mg/kg) was 10.54 (0.79 – 25.48) μM. The “Brain level (mean)” value ([6]; 40 mg/kg) was 2.30 (0.62 – 5.54) μM, the “Plasma level (mean)” value ([6]; 40 mg/kg) was 7.79 (0.81 – 16.98) μM and the “cocaine-induced decrease in ICSS response latencies” value ([7]; 20 mg/kg i.p. combined with cocaine 10 mg/kg i.p.) was “reversed the cocaine-induced decrease in response latencies”. For the same compound, the ICSS response latencies ([7]; 40 mg/kg i.p. vs vehicle) was “significantly increased”, the “cocaine-induced ICSS threshold lowering” value ([7]; 20 and 40 mg/kg i.p. combined with cocaine 10 mg/kg i.p.) was “attenuated cocaine-induced threshold lowering” and the ICSS reward thresholds ([7]; administered alone, 20 and 40 mg/kg i.p.) was “significantly elevated reward thresholds”. The food-maintained responding ([2]; 10, 20, 40 mg/kg i.p.) was “no effect on food responding”, the “cue-induced food seeking (active lever presses)” value [8] was “no effect on the number of active lever presses” and the “active lever presses in reinstatement sessions” value ([9]; non-reinstated sub-groups of ShA and LgA rats (median split), 10-40 mg/kg i.p.) was “no effect of BINA treatment”. For the same compound, the “cue-induced reinstatement of cocaine-seeking behavior” value ([9]; three ShA rats reinstating by predefined criterion) was “tended to reduce cue-induced reinstatement” and the inactive lever presses ([3]; 10, 20, 40 mg/kg i.p.) was “no effect on inactive lever presses”.

In the case of `COC(=O)[C@H]1[C@@H](OC(=O)c2ccccc2)C[C@@H]2CC[C@H]1N2C` [Cocaine, Cocaine hydrochloride, reference compound], the ICSS reward thresholds ([7]; 10 mg/kg i.p., co-administered with vehicle or 10 mg/kg BINA) is reported as “significantly lowered ICSS thresholds”.
